Results from BigSolDB 2.1.

O=c1c(-c2ccc(O)cc2)coc2cc(O[C@@H]3O[C@H](CO)[C@@H](O)[C@H](O)[C@H]3O)ccc12
solubility (mole fraction)
Settings | 283.2 K | 293.2 K | 303.2 K | 313.2 K | 323.2 K
in THF | 0.000784 | 0.00182 | 0.00684 | 0.0165 | 0.0417
in acetone | 0.000148 | 0.000241 | 0.000326 | 0.000458 | 0.000553
in acetonitrile | 5.77e-06 | 9e-06 | 1.4e-05 | 2e-05 | 3.3e-05
in chloroform | 3.83e-07 | 8.76e-07 | 1.6e-06 | 2.36e-06 | 3.2e-06
in cyclohexane | 1.25e-07 | 2.95e-07 | 5.56e-07 | 1.02e-06 | 1.37e-06
in ethanol | 0.000291 | 0.000397 | 0.000499 | 0.000669 | 0.000813
in ethyl acetate | 5.38e-06 | 7.88e-06 | 1.58e-05 | 4.24e-05 | 6.74e-05
in isopropanol | 0.00016 | 0.000202 | 0.000283 | 0.000427 | 0.000503
in methanol | 8.78e-05 | 0.000162 | 0.000339 | 0.000516 | 0.000794
in n-butanol | 0.000141 | 0.000211 | 0.000253 | 0.000353 | 0.000479
in water | 2.36e-06 | 4.1e-06 | 6.91e-06 | 9.39e-06 | 1.58e-05
